Results as given in patent US8236818B2, “Substituted imidazopyridine derivatives as melanocortin-4 receptor antagonists” (Santhera Pharmaceuticals (Schweiz) AG, priority 2007, dated 2012).

Legend:
[1] = molecular target: T1, melanocortin-4 receptor (Homo sapiens, UniProt P32245); assay: Functional assay (cAMP fluorescence polarization, membrane based, agonistic activity); type: biochemical; conditions: for Emax: 2 h, read-out: % activation functional assay; for EC50: agonistic activity, cAMP, HEK293 membrane preparations, read-out: hMC-4R functional assay EC50/μM
T1 construct: expressed in transfected cells; host or cells: HEK293 cells (membrane preparations)
T1 sequence (P32245 whole entry): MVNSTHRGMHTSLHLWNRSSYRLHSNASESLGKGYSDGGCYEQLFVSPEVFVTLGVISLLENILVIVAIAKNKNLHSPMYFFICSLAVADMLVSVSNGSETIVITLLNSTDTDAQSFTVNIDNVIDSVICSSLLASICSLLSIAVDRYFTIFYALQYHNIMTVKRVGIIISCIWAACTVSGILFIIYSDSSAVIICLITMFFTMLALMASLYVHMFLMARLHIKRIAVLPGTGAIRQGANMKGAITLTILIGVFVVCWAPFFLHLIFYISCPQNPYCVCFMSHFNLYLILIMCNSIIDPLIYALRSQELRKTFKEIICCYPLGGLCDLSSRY

[2] = molecular target: T1, melanocortin-4 receptor; assay: Membrane binding assay (fluorescence polarization, competition with fluorescence labeled NDP-alpha-MSH); conditions: read-out: hMC-4R binding assay IC50/μM

| Compound | Emax [1] | IC50 [2] | EC50 [1] |
| --- | --- | --- | --- |
| CC(C)CCN(CCC(C)C)C(=O)c1ccc2nc(-c3ccc(C#N)cc3)c(CCN3CCN(C)CC3)n2c1 [Example 27] | 0% | > 1 µM |  |
| CC(C)CCN(CCC(C)C)C(=O)c1ccc2nc(-c3nccs3)c(CN3CCC(N)CC3)n2c1 [Example 135] | 0% | > 1 µM |  |
| COc1cccc(-c2nc3ccc(C(=O)N(CCC(C)C)CCC(C)C)cn3c2CCCN2CC[C@@H](F)C2)c1 [Example 32] | 0% | 0.1 to 1 µM |  |
| COc1cccc(-c2nc3ccc(C(=O)N(CCC(C)C)CCC(C)C)cn3c2CCCNC(C)C)c1 [Example 7] | 0% | 0.1 to 1 µM |  |
| O=C(c1ccc2nc(-c3ccc(=O)[nH]c3)c(CCCN3CCCC3)n2c1)N(CCC1CC1)CCC1CC1 [Example 148] | -12% | 0.1 to 1 µM |  |
| CC(C)CCN(CCC(C)C)C(=O)c1ccc2nc(-c3ncco3)c(CCCN3CCC[C@H]3CO)n2c1 [Example 76] | 4% | 0.1 to 1 µM |  |
| CC(C)CCN(CCC(C)C)C(=O)c1ccc2nc(-c3ccc(F)cc3)c(CN3CCC(N)CC3)n2c1 [Example 118] | 0% | 0.1 to 1 µM |  |
| CCN(C)CCCCc1c(-c2ccc(Cl)cc2)nc2ccc(C(=O)N(CCC(C)C)CCC(C)C)cn12 [Example 23] | 0% | 0.1 to 1 µM |  |
| CC(C)CC1CCCN1C(=O)c1ccc2nc(-c3ccc(C#N)cc3)c(CCCN3CCCC3)n2c1 (stereo not shown) [Example 146] | 0% | 0.1 to 1 µM |  |
| CC(C)CCN(CCC(C)C)C(=O)c1ccc2nc(-c3ccc(=O)[nH]c3)c(CCCN(C)C)n2c1 [Example 68] | 0% | 0.1 to 1 µM |  |
| CC(C)CCN(CCC(C)C)C(=O)c1ccc2nc(-c3cccc(C#N)c3)c(CN3CCC(N)CC3)n2c1 [Example 122] | 0% | 0.1 to 1 µM |  |
| COc1cccc(-c2nc3ccc(C(=O)N(CCC(C)C)CCC(C)C)cn3c2CN2CCC(N)C2)c1 (stereo not shown) [Example 123] | 0% | > 1 µM |  |
| COc1ccc(OC)c(-c2nc3ccc(C(=O)N(CCC(C)C)CCC(C)C)cn3c2CN2CCC(N(C)C)CC2)c1 [Example 130] | 0% | > 1 µM |  |
| CC(C)CCN(CCC(C)C)C(=O)c1ccc2nc(-c3ccccc3)c(CN3CCC(N)CC3)n2c1 [Example 133] | 0% | 0.1 to 1 µM |  |
| CC(C)CCN(CCC(C)C)C(=O)c1ccc2nc(-c3ccc(C(=O)N(C)C)cc3)c(CCCN3CCCC3)n2c1 [Example 63] | 0% | 0.1 to 1 µM |  |
| CC(C)CCN(CCC(C)C)C(=O)c1ccc2nc(-c3cccs3)c(CN3CCC(N)CC3)n2c1 [Example 125] | 0% | 0.1 to 1 µM |  |
| COc1cccc(-c2nc3ccc(C(=O)N(CCC(C)C)CCC(C)C)cn3c2CN2CCC(N)CC2)c1 [Example 116] | 0% | 0.1 to 1 µM |  |
| CC(=O)OCCn1cc(-c2nc3ccc(C(=O)N(CCC4CC4)CCC4CC4)cn3c2CCCN2CCCC2C)ccc1=O (stereo not shown) [Example 110] | -23% | 0.1 to 1 µM |  |
| CC(C)CCN(CCC(C)C)C(=O)c1ccc2nc(-c3ccc(C#N)cc3)c(CN3CCC(N)CC3)n2c1 [Example 138] | 0% | 0.1 to 1 µM |  |
| CC(C)CCN(CCC(C)C)C(=O)c1ccc2nc(-c3ncco3)c(CCCN3CC[C@@H](F)C3)n2c1 [Example 72] | 2% | 0.1 to 1 µM |  |

Now from value to compound:

| Emax [1] | IC50 [2] | EC50 [1] | Compound |
| --- | --- | --- | --- |
| 0% | < 0.1 µM |  | CC(C)CCN(CCC(C)C)C(=O)c1ccc2nc(-c3ccc(S(C)(=O)=O)cc3)c(CCCN3CCCC3)n2c1 [Example 35] |
| 0% | 0.1 to 1 µM |  | CC(C)CCN(CCC(C)C)C(=O)c1ccc2nc(-c3ccc(Cl)cc3)c(CCCCN3CCCC3)n2c1 [Example 22] |
| 0% | < 0.1 µM |  | COCCOc1ccc(-c2nc3ccc(C(=O)N(CCC(C)C)CCC(C)C)cn3c2CCCN2CCCC2)cn1 [Example 96] |
| 0% | 0.1 to 1 µM |  | CC(C)CCN(CCC(C)C)C(=O)c1ccc2nc(-c3ncco3)c(CCCN(C)C)n2c1 [Example 52] |
| 0% | 0.1 to 1 µM |  | CC(C)CCN(CCC(C)C)C(=O)c1ccc2nc(-c3ncco3)c(CCCN3CC[C@@H](O)C3)n2c1 [Example 71] |
| 0% | < 0.1 µM |  | CC(C)CCN(CCC(C)C)C(=O)c1ccc2nc(-c3ccc(Cl)cn3)c(CCCN3CCCC3)n2c1 [Example 42] |
| 0% | < 0.1 µM |  | COc1cccc(-c2nc3ccc(C(=O)N(CCC(C)C)CCC(C)C)cn3c2CCCN2CCC2)c1 [Example 11] |
| 4% | < 0.1 µM |  | CC(=O)OCCn1cc(-c2nc3ccc(C(=O)N(CCC(C)C)CCC(C)C)cn3c2CCCN2CCCC2)ccc1=O [Example 99] |
| 0% | 0.1 to 1 µM |  | CC(C)CCN(CCC(C)C)C(=O)c1ccc2nc(-c3nccs3)c(CCCN(C)C)n2c1 [Example 61] |
| 0% | < 0.1 µM |  | CC(C)CCN(CCC(C)C)C(=O)c1ccc2nc(-c3ccc(N)nc3)c(CCCN3CCCC3)n2c1 [Example 65] |
| 0% | < 0.1 µM |  | CC(C)CCN(CCC(C)C)C(=O)c1ccc2nc(-c3ccc4c(c3)CCC(=O)N4)c(CCCN3CCCC3)n2c1 [Example 45] |
| 0% | 0.1 to 1 µM |  | CC(C)CCN(CCC(C)C)C(=O)c1ccc2nc(-c3ccc(C(F)(F)F)cc3)c(CN3CCC(N)CC3)n2c1 [Example 134] |
| -41% | 0.1 to 1 µM | > 1 µM | CC(C)CCN(CCC(C)C)C(=O)c1ccc2nc(-c3cccnc3N)c(CCCN3CCCC3)n2c1 [Example 90] |
| 0% | 0.1 to 1 µM |  | COc1cccc(-c2nc3ccc(C(=O)N(CCC(C)C)CCC(C)C)cn3c2CCCN(C)C)c1 [Example 28] |
| -18% | 0.1 to 1 µM | < 0.1 µM | CC(C)CCN(CCC(C)C)C(=O)c1ccc2nc(-c3ccc(Cl)cc3)c(CCCN(C)C)n2c1 [Example 20] |
| 0% | < 0.1 µM |  | COc1ccc(-c2nc3ccc(C(=O)N(CCC(C)C)CCC(C)C)cn3c2CCCN2CCCC2)cc1 [Example 6] |
| 0% | < 0.1 µM |  | CNC(=O)c1ccc(-c2nc3ccc(C(=O)N(CCC(C)C)CCC(C)C)cn3c2CCCN2CCCC2)cc1 [Example 64] |
| 0% | < 0.1 µM |  | COc1cccc(-c2nc3ccc(C(=O)N(CCC(C)C)CCC(C)C)cn3c2CCCN2CC(O)C2)c1 [Example 37] |
| -15% | < 0.1 µM |  | CC(=O)OCCOc1ccc(-c2nc3ccc(C(=O)N(CCC(C)C)CCC(C)C)cn3c2CCCN2CCCC2C)cn1 (stereo not shown) [Example 102] |
| 2% | < 0.1 µM |  | CC(C)CCN(CCC(C)C)C(=O)c1ccc2nc(-c3ncco3)c(CCCN3CC[C@H](F)C3)n2c1 [Example 78] |
| -22% | < 0.1 µM | < 0.1 µM | COc1cccc(-c2nc3ccc(C(=O)N(CCC(C)C)CCC(C)C)cn3c2CCCN2CC[C@H](O)C2)c1 [Example 33] |
| 0% | < 0.1 µM |  | COc1cccc(-c2nc3ccc(C(=O)N(CCC(C)C)CCC(C)C)cn3c2CCCN2CCOC[C@@H]2C)c1 [Example 16] |
| 0% | < 0.1 µM |  | CC(C)CCN(CCC(C)C)C(=O)c1ccc2nc(-c3ccc(=O)[nH]c3)c(CCCN3CCCC3)n2c1 [Example 59] |
| 4% | < 0.1 µM |  | CC(C)CCN(CCC(C)C)C(=O)c1ccc2nc(-c3ncco3)c(CCCN3CCC(O)CC3)n2c1 [Example 77] |
